# Laboratory results as given in patent US10517889B2, “Modulators of SMAD7 expression” (Ionis Pharmaceuticals, Inc., priority 2017, dated 2019).
# Strand notation (5' to 3'): a small letter for the sugar, then the base; units joined by * are phosphorothioate-linked, units joined directly phosphodiester-linked; [ ] holds rarer units or linkages, { } end groups; capitals alone tell only the bases. k = constrained ethyl (cEt); [5mC] = 5-methylcytosine; d = 2'-deoxy (DNA)
# System: human SMAD7 mRNA
# Test: Antisense inhibition of human SMAD7 mRNA expression in Hep3B cells by 3-10-3 cEt gapmers, 10,000 nM, electroporation (Example 2)
# Format: cell-based
# Conditions: Hep3B cells, electroporation with 10,000 nM antisense oligonucleotide, approximately 24 hours, primer probe set RTS5062, relative to untreated control cells
# In short: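 qRT-PCR (RTS5062) of SMAD7 mRNA, normalised to RIBOGREEN total RNA, gave percent inhibition relative to untreated controls. Hep3B cells at 20,000 per well received 10,000 nM oligonucleotide by electroporation, with ~24 h treatment.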
Substance,% Inhibition [%],% inhibition of SMAD7 mRNA expression [%]
799178 (antisense kA*kG*k[5mC]*dT*dT*dA*dT*dG*dT*dT*dA*dA*dA*kG*kT*k[5mC]) [compound 799178],34,–
799179 (antisense kA*kA*kT*dA*dG*d[5mC]*dT*dT*dA*dT*dG*dT*dT*kA*kA*kA) [compound 799179],0,–
799180 (antisense kG*kA*kA*dA*dA*dA*dT*dA*dG*d[5mC]*dT*dT*dA*kT*kG*kT) [compound 799180],20,–
799181 (antisense kG*kT*kT*dA*dG*dA*dA*dA*dA*dA*dT*dA*dG*k[5mC]*kT*kT) [compound 799181],37,–
799182 (antisense kG*kT*kA*dG*dT*dT*dA*dG*dA*dA*dA*dA*dA*kT*kA*kG) [compound 799182],20,–
799183 (antisense k[5mC]*kT*kT*dT*dG*dT*dA*dG*dT*dT*dA*dG*dA*kA*kA*kA) [compound 799183],–,0
799185 (antisense kT*kT*kA*dA*dA*d[5mC]*d[5mC]*dT*dT*dT*dG*dT*dA*kG*kT*kT) [compound 799185],–,0
799186 (antisense k[5mC]*kT*kT*dG*dT*dT*d[5mC]*dA*dT*dT*dT*dA*dA*kA*k[5mC]*k[5mC]) [compound 799186],–,31
799187 (antisense k[5mC]*kT*kT*d[5mC]*dT*d[5mC]*dT*dT*dG*dT*dT*d[5mC]*dA*kT*kT*kT) [compound 799187],–,17
799188 (antisense kT*kG*k[5mC]*dT*dT*d[5mC]*dT*d[5mC]*dT*dT*dG*dT*dT*k[5mC]*kA*kT) [compound 799188],–,43
799189 (antisense kA*kA*kT*dG*d[5mC]*dT*dT*d[5mC]*dT*d[5mC]*dT*dT*dG*kT*kT*k[5mC]) [compound 799189],–,33
799190 (antisense kA*kG*kA*dA*dT*dG*d[5mC]*dT*dT*d[5mC]*dT*d[5mC]*dT*kT*kG*kT) [compound 799190],–,61
799191 (antisense kA*kT*kG*dA*dG*dA*dA*dT*dG*d[5mC]*dT*dT*d[5mC]*kT*k[5mC]*kT) [compound 799191],26,–
799192 (antisense kT*kT*kT*d[5mC]*d[5mC]*dA*dA*dT*dG*dA*dG*dA*dA*kT*kG*k[5mC]) [compound 799192],60,–
799193 (antisense kT*kA*kA*dA*dT*dT*dT*d[5mC]*d[5mC]*dA*dA*dT*dG*kA*kG*kA) [compound 799193],43,–
799194 (antisense kT*kG*k[5mC]*dT*dA*dA*dA*dT*dT*dT*d[5mC]*d[5mC]*dA*kA*kT*kG) [compound 799194],42,–
799195 (antisense k[5mC]*kA*kA*dT*dG*d[5mC]*dT*dA*dA*dA*dT*dT*dT*k[5mC]*k[5mC]*kA) [compound 799195],43,–
799196 (antisense kG*k[5mC]*kA*d[5mC]*dT*dA*d[5mC]*dA*dA*dT*dG*d[5mC]*dT*kA*kA*kA) [compound 799196],47,–
799197 (antisense k[5mC]*kT*k[5mC]*dA*dA*dA*dG*d[5mC]*dA*d[5mC]*dT*dA*d[5mC]*kA*kA*kT) [compound 799197],–,34
799198 (antisense kG*kT*k[5mC]*d[5mC]*dT*dT*dT*d[5mC]*dT*d[5mC]*dT*d[5mC]*dT*k[5mC]*kA*kA) [compound 799198],–,17
799199 (antisense kG*kG*kA*dG*dT*d[5mC]*d[5mC]*dT*dT*dT*d[5mC]*dT*d[5mC]*kT*k[5mC]*kT) [compound 799199],–,24
799200 (antisense kT*k[5mC]*kA*dG*dG*dA*dG*dT*d[5mC]*d[5mC]*dT*dT*dT*k[5mC]*kT*k[5mC]) [compound 799200],–,69
